Measurements reported in patent publication US4036840A, “2-Substituted-s-triazolo[1,5a]pyrimidines” (ICN Pharmaceuticals, priority 1975, dated 1977).

Assays:
[1] = test system: 3',5'-Cyclic AMP phosphodiesterase (PDE) from lung; test: 3',5'-Cyclic AMP phosphodiesterase (PDE) inhibition, rabbit lung enzyme (Fraction II, low Km); assay type: biochemical; details: relative to theophylline, cAMP about 1.7 × 10^-7 M, 30° C., 10 minutes, pH 7.5
[2] = test system: 3',5'-Cyclic AMP phosphodiesterase (PDE) from kidney; test: 3',5'-Cyclic AMP phosphodiesterase (PDE) inhibition, rabbit kidney enzyme (Fraction II, low Km); assay type: biochemical; details: relative to theophylline, cAMP about 1.7 × 10^-7 M, 30° C., 10 minutes, pH 7.5

| Structure (SMILES) | PDE Lung; α (I50 theophylline / I50 compound) [1] | PDE Kidney; α (I50 theophylline / I50 compound) [2] |
| --- | --- | --- |
| Cc1cc(N2CCCCC2)n2nc(SCc3ccccc3)nc2n1 [Compound 30] | 10.0 | 3.20 |
| Cc1cccc(CSc2nc3nc(C)cc(C)n3n2)c1 [Compound 14] | 2.00 | 0.70 |
| CCCNc1cc(C)nc2nc(SCc3ccccc3)nn12 [Compound 26] | 2.00 | 0.90 |
| Cc1cc(C)n2nc(SCc3ccncc3)nc2n1 [Compound 18] | 0.80 | 0.70 |
| Cc1cc(C)n2nc(SCc3cccnc3)nc2n1 [Compound 19] | 1.17 | 0.00 |
| CSc1nc2nc(C)cc(C)n2n1 [Compound 9] | 0.50 | 0.25 |
| Cc1cc(C)n2nc(SCC(C)C)nc2n1 [Compound 10] | 0.10 | 0.50 |
| CCOC(=O)C(Sc1nc2nc(C)cc(C)n2n1)C(=O)OCC [Compound 11] | 0.50 | 0.00 |
| CCOC(=O)c1cnc2nc(SCc3ccccc3)nn2c1O [Compound 34, 2-benzylthio-6-carbethoxy-7-hydroxy-s-triazolo [1,5a]pyrimidine] | 0.00 | 0.00 |
| Cc1cc(N(C)C)n2nc(SCc3ccccc3)nc2n1 [Compound 28] | 8.00 | 3.40 |
| Cc1cc(C)n2nc(SC(C)C)nc2n1 [Compound 8] | 0.10 | 1.30 |
| CCCSc1nc2nc(C)cc(C)n2n1 [Compound 7] | 0.90 | 1.00 |
| Cc1cc(C)n2nc(SCc3ccccc3C)nc2n1 [Compound 15] | 3.50 | 4.00 |
| Cc1ccc(CSc2nc3nc(C)cc(C)n3n2)cc1 [Compound 13] | 6.20 | 1.00 |
| Cc1cc(C)n2nc(SCc3ccc4ccccc4n3)nc2n1 [Compound 20] | 2.00 | 0.70 |
| Cc1cc(C)n2nc(SCc3ccc(C(=O)O)cc3)nc2n1 [Compound 12] | 1.20 | 0.70 |
| Cc1cc(C)n2nc(SCC3CCCO3)nc2n1 (stereo not drawn) [Compound 22] | 0.60 | 0.00 |
| Cc1cc(C)n2nc(SCc3ccc(Cl)cc3)nc2n1 [Compound 4, 2-(p-chlorobenzylthio)-5,7-dimethyl-s-triazolo[1,5a]pyrimidine] | 4.00 | 4.0 |
| Cc1cc(C)n2nc(SCCc3ccccc3)nc2n1 [Compound 23] | 2.50 | 2.50 |
| CCOC(=O)c1ccc(CSc2nc3nc(C)cc(C)n3n2)o1 [Compound 21] | 3.2 | 1.25 |
| CCOC(=O)c1cnc2nc(SCc3ccccc3)nn2c1N1CCOCC1 [Compound 36] | 6.90 | 2.90 |
